According to PubChem BioAssay (NCI):
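Cells were grown in 96-well plates and exposed to each compound for 48 hours at five concentrations; endpoints were interpolated linearly between bracketing concentrations, or set to the highest concentration if not reached. At the GI50, growth is halved. Definition used: TGI = concentration required for complete inhibition of growth.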

Columns and labels:
Experiment in all cases: inhibition of tumour cell growth, NCI panel, 48 h
M14 melanoma = tested on: M14 melanoma
LOX IMVI melanoma = tested on: LOX IMVI melanoma
UO-31 renal = tested on: UO-31 renal
NCI-H522 lung = tested on: NCI-H522 lung
PC-3 prostate = tested on: PC-3 prostate
UACC-62 melanoma = tested on: UACC-62 melanoma
OVCAR-8 ovarian = tested on: OVCAR-8 ovarian
SK-MEL-5 melanoma = tested on: SK-MEL-5 melanoma
OVCAR-4 ovarian = tested on: OVCAR-4 ovarian
SK-MEL-28 melanoma = tested on: SK-MEL-28 melanoma
U251 CNS = tested on: U251 CNS
HCT-15 colon = tested on: HCT-15 colon
A549 NSCLC = tested on: A549 NSCLC
HCT-116 colon = tested on: HCT-116 colon
NCI-H460 lung = tested on: NCI-H460 lung
EKVX NSCLC = tested on: EKVX NSCLC
MDA-MB-231 breast = tested on: MDA-MB-231 breast
786-0 renal = tested on: 786-0 renal
SN12C renal = tested on: SN12C renal
HL-60(TB) leukemia = tested on: HL-60(TB) leukemia
BT-549 breast = tested on: BT-549 breast
NCI-H23 lung = tested on: NCI-H23 lung
SW-620 colon = tested on: SW-620 colon
NCI/ADR-RES ovarian = tested on: NCI/ADR-RES ovarian
HOP-92 NSCLC = tested on: HOP-92 NSCLC
HCC-2998 colon = tested on: HCC-2998 colon
KM12 colon = tested on: KM12 colon
TK-10 renal = tested on: TK-10 renal
UACC-257 melanoma = tested on: UACC-257 melanoma
SF-539 CNS = tested on: SF-539 CNS
A498 renal = tested on: A498 renal
SF-268 CNS = tested on: SF-268 CNS
CCRF-CEM leukemia = tested on: CCRF-CEM leukemia
T-47D breast = tested on: T-47D breast
MALME-3M melanoma = tested on: MALME-3M melanoma
OVCAR-3 ovarian = tested on: OVCAR-3 ovarian
RXF 393 renal = tested on: RXF 393 renal
CAKI-1 renal = tested on: CAKI-1 renal
HOP-62 NSCLC = tested on: HOP-62 NSCLC
HT29 colon = tested on: HT29 colon
DU-145 prostate = tested on: DU-145 prostate
HS 578T breast = tested on: HS 578T breast
RPMI-8226 leukemia = tested on: RPMI-8226 leukemia
SF-295 CNS = tested on: SF-295 CNS
OVCAR-5 ovarian = tested on: OVCAR-5 ovarian
COLO 205 colon = tested on: COLO 205 colon
MDA-MB-435 = tested on: MDA-MB-435
SK-MEL-2 melanoma = tested on: SK-MEL-2 melanoma
IGROV1 ovarian = tested on: IGROV1 ovarian
K-562 leukemia = tested on: K-562 leukemia
SNB-75 CNS = tested on: SNB-75 CNS
SR leukemia = tested on: SR leukemia
ACHN renal = tested on: ACHN renal
MOLT-4 leukemia = tested on: MOLT-4 leukemia
SNB-19 CNS = tested on: SNB-19 CNS
NCI-H226 lung = tested on: NCI-H226 lung
MCF7 breast = tested on: MCF7 breast
SK-OV-3 ovarian = tested on: SK-OV-3 ovarian

O=C(CC12CC3CC(CC(C3)C1)C2)NCCOCCOCCNC(=O)c1cc2c(o1)C(=O)c1ccccc1C2=O
GI50 (M14 melanoma): 0.211 µM | TGI (M14 melanoma): 0.462 µM | GI50 (LOX IMVI melanoma): 0.526 µM | TGI (LOX IMVI melanoma): 2.03 µM | GI50 (UO-31 renal): 1.5 µM | TGI (UO-31 renal): 3.09 µM | GI50 (NCI-H522 lung): 1.34 µM | TGI (NCI-H522 lung): 3.04 µM | GI50 (PC-3 prostate): 1.38 µM | TGI (PC-3 prostate): 9.21 µM | GI50 (UACC-62 melanoma): 0.271 µM | TGI (UACC-62 melanoma): 0.748 µM | GI50 (OVCAR-8 ovarian): 0.813 µM | TGI (OVCAR-8 ovarian): 11.6 µM | GI50 (SK-MEL-5 melanoma): 0.176 µM | TGI (SK-MEL-5 melanoma): 0.328 µM | GI50 (OVCAR-4 ovarian): 0.839 µM | TGI (OVCAR-4 ovarian): 2.08 µM | GI50 (SK-MEL-28 melanoma): 1.58 µM | TGI (SK-MEL-28 melanoma): 3.09 µM | GI50 (U251 CNS): 1.37 µM | TGI (U251 CNS): 2.81 µM | GI50 (HCT-15 colon): 0.867 µM | TGI (HCT-15 colon): 2.39 µM | GI50 (A549 NSCLC): 0.22 µM | TGI (A549 NSCLC): 0.51 µM | GI50 (HCT-116 colon): 1.58 µM | TGI (HCT-116 colon): 4.96 µM | GI50 (NCI-H460 lung): 0.317 µM | TGI (NCI-H460 lung): 1 µM | GI50 (EKVX NSCLC): 1.84 µM | TGI (EKVX NSCLC): 3.53 µM | GI50 (MDA-MB-231 breast): 1.53 µM | TGI (MDA-MB-231 breast): 5.68 µM | GI50 (786-0 renal): 2.05 µM | TGI (786-0 renal): 4.7 µM | GI50 (SN12C renal): 0.595 µM | TGI (SN12C renal): 1.87 µM | GI50 (HL-60(TB) leukemia): 1.22 µM | TGI (HL-60(TB) leukemia): 4.61 µM | GI50 (BT-549 breast): 1.23 µM | TGI (BT-549 breast): 2.51 µM | GI50 (NCI-H23 lung): 0.133 µM | TGI (NCI-H23 lung): 0.469 µM | GI50 (SW-620 colon): 1.21 µM | TGI (SW-620 colon): 2.87 µM | GI50 (NCI/ADR-RES ovarian): 2.07 µM | TGI (NCI/ADR-RES ovarian): 5.87 µM | GI50 (HOP-92 NSCLC): 2.26 µM | TGI (HOP-92 NSCLC): 6.1 µM | GI50 (HCC-2998 colon): 1.78 µM | TGI (HCC-2998 colon): 3.39 µM | GI50 (KM12 colon): 1.58 µM | TGI (KM12 colon): 5.13 µM | GI50 (TK-10 renal): 3.06 µM | TGI (TK-10 renal): 5.27 µM | GI50 (UACC-257 melanoma): 1.14 µM | TGI (UACC-257 melanoma): 2.43 µM | GI50 (SF-539 CNS): 1.14 µM | TGI (SF-539 CNS): 2.37 µM | GI50 (A498 renal): 1.6 µM | TGI (A498 renal): 3.16 µM | GI50 (SF-268 CNS): 1.68 µM | TGI (SF-268 CNS): 3.9 µM | GI50 (CCRF-CEM leukemia): 2.27 µM | TGI (CCRF-CEM leukemia): 13.1 µM | GI50 (T-47D breast): 1.8 µM | TGI (T-47D breast): 5.06 µM | GI50 (MALME-3M melanoma): 0.134 µM | TGI (MALME-3M melanoma): 0.264 µM | GI50 (OVCAR-3 ovarian): 0.243 µM | TGI (OVCAR-3 ovarian): 0.72 µM | GI50 (RXF 393 renal): 1.34 µM | TGI (RXF 393 renal): 2.65 µM | GI50 (CAKI-1 renal): 1.46 µM | TGI (CAKI-1 renal): 3.86 µM | GI50 (HOP-62 NSCLC): 1.52 µM | TGI (HOP-62 NSCLC): 2.86 µM | GI50 (HT29 colon): 2.38 µM | TGI (HT29 colon): 5.85 µM | GI50 (DU-145 prostate): 0.225 µM | TGI (DU-145 prostate): 0.457 µM | GI50 (HS 578T breast): 1.43 µM | TGI (HS 578T breast): 5.18 µM | GI50 (RPMI-8226 leukemia): 1.56 µM | TGI (RPMI-8226 leukemia): 4.43 µM | GI50 (SF-295 CNS): 0.663 µM | TGI (SF-295 CNS): 1.94 µM | GI50 (OVCAR-5 ovarian): 1.69 µM | TGI (OVCAR-5 ovarian): 3.09 µM | GI50 (COLO 205 colon): 1.28 µM | TGI (COLO 205 colon): 2.76 µM | GI50 (MDA-MB-435): 0.185 µM | TGI (MDA-MB-435): 0.343 µM | GI50 (SK-MEL-2 melanoma): 1.6 µM | TGI (SK-MEL-2 melanoma): 3.86 µM | GI50 (IGROV1 ovarian): 1.41 µM | TGI (IGROV1 ovarian): 3.21 µM | GI50 (K-562 leukemia): 1.33 µM | TGI (K-562 leukemia): 4.9 µM | GI50 (SNB-75 CNS): 1.56 µM | TGI (SNB-75 CNS): 2.9 µM | GI50 (SR leukemia): 1.08 µM | TGI (SR leukemia): 6.55 µM | GI50 (ACHN renal): 1.35 µM | TGI (ACHN renal): 2.72 µM | GI50 (MOLT-4 leukemia): 1.97 µM | TGI (MOLT-4 leukemia): 4.98 µM | GI50 (SNB-19 CNS): 0.841 µM | TGI (SNB-19 CNS): 3.11 µM | GI50 (NCI-H226 lung): 1.65 µM | TGI (NCI-H226 lung): 3.94 µM | GI50 (MCF7 breast): 0.54 µM | TGI (MCF7 breast): 2.38 µM | GI50 (SK-OV-3 ovarian): 2.19 µM | TGI (SK-OV-3 ovarian): 4.71 µM
